The text below walks through data of article PMC6043687, “Structural Analysis of Phosphoserine Aminotransferase (Isoform 1) From Arabidopsis thaliana– the Enzyme Involved in the Phosphorylated Pathway of Serine Biosynthesis” (Frontiers in Plant Science, 2018).

For data set [1], the target named is T1, AtPSAT1 (Arabidopsis thaliana, UniProt Q96255).
T1 construct: gene PSAT1; residues 72-430 (71-residue chloroplast transit peptide removed), 359 residues plus N-terminal SNA left after TEV cleavage of His6-tag; E. coli BL21 Gold, pMCSG68; homodimer (~80 kDa by SEC)
T1 sequence (Q96255 72-430): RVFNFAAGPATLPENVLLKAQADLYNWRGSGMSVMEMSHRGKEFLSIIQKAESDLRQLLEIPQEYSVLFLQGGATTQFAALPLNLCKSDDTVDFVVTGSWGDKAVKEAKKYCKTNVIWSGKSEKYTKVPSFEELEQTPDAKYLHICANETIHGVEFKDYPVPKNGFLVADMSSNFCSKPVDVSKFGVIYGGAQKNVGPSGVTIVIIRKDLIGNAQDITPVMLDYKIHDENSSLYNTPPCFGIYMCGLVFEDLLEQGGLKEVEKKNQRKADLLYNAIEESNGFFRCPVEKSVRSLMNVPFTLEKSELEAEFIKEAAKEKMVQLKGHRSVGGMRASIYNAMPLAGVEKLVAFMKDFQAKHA
Briefly: X-ray crystallography: conversion of bound PLP to PMP. The data set is classed as biochemical. The settings on record: 10 mM Glu added before crystallization; pH 8.5; Glu itself not present in the structure.

The target in data set [2] is T1, AtPSAT1. Kind of data set: X-ray crystallography, […] Å. The data set is classed as binding. The conditions noted are these: covalent; internal aldimine (Schiff base) with K265; 1 mM PLP added; pH 8.5, 0.2 M lithium sulfate.
Data set [3] addresses T1, AtPSAT1. Kind of data set: X-ray crystallography, […] Å. The data set is classed as binding. The conditions noted are these: PMP formed from PLP by addition of 10 mM Glu; not covalently bound to K265; pH 8.5, 0.2 M lithium sulfate.
Data set [4] has as its target T1, AtPSAT1. Kind of data set: X-ray crystallography, […] Å. In kind it is binding. The settings on record: covalent; PLP-PSer geminal diamine intermediate also bound to K265; cocrystallized with 50 mM PSer, pH 8.5, no lithium sulfate.
Data set [5] deals with the molecule itself. Kind of data set: SEC; HiLoad Superdex 200 16/60; 25 mM HEPES pH 7.4, 100 mM KCl, 50 mM NaCl, 1 mM TCEP; protein mass calculated from the retention volume (~80 kDa).

With `N[C@@H](CCC(=O)O)C(=O)O` [Glu], at AtPSAT1 [1], the “first half-transamination observed in crystal” value is “electron density maps (Figures 6A,B) revealed the cofactor with the amino group already transferred from Glu”.
On to `Cc1ncc(COP(=O)(O)O)c(C=O)c1O` [PLP], for which the crystal structure entry at AtPSAT1 [2] was “The PLP prosthetic group creates a Schiff base (internal aldimine) between C4′ and Nζ of K265”.
As to `Cc1ncc(COP(=O)(O)O)c(CN)c1O` [PMP], the crystal structure result at AtPSAT1 [3] is reported as “Position of PMP is almost identical as PLP, thus its interactions with the protein are preserved”.
For `N[C@@H](COP(=O)(O)O)C(=O)O` [PSer], the crystal structure result on AtPSAT1 [4] is “The bound PSer creates several hydrogen bonds in the active site”.

B1: Phosphoserine aminotransferase isoform 1 from Arabidopsis thaliana (AtPSAT1), residues 72-430 (enzyme, UniProt Q96255 72-430, looked up)
chain: T1 sequence (Q96255 72-430)
modifications: PLP covalently bound to the catalytic K265 (internal aldimine, 6czx); PMP not covalently bound (6czy); cofactor covalently bound to both K265 and PSer (geminal diamine, 6czz)
notes: Phosphoserine aminotransferase isoform 1, chloroplastic, Arabidopsis thaliana; subunit of 430 residues including the transit peptide; construct truncated before R72 (71-residue chloroplast transit peptide removed), residues 72-430, 359 residues; After TEV cleavage the N-terminal residues SNA remain in front of R72 (vector pMCSG68); Crystallised with 1 mM PLP; with 10 mM Glu (PMP form) or 50 mM …
The stoichiometry N is a count of units in the complex or per binding partner. For the molecule B1, the “stoichiometry N” value in data set [5] is 2.
